# Source: patent US20160095867A1, “BET INHIBITION THERAPY FOR HEART DISEASE” (DANA-FARBER CANCER INSTITUTE, INC., priority 2013, published 2016)
# How the values were obtained:
# [1] = tested on: Neonatal rat ventricular cardiomyocytes (NRVM); assay: Doxorubicin mediated apoptosis in cultured cardiomyocytes (TUNEL); format: cell-based; settings: JQ1 250 nM 3 hours, then Doxo 1 μM 24 hours
# Description: Doxorubicin (Doxo) is an anthracycline compound commonly used as cytotoxic chemotherapy for cancer. Doxo causes dose-dependent toxicity to cardiomyocytes and can cause cardiac enlargement, fibrosis and heart failure in patients. Cardiotoxicity is dose-limiting for anthracyclines such as Doxorubicin and Daunorubicin. […] Neonatal rat ventricular cardiomyocytes (NRVM) were treated with or without JQ1 (250 nM) for 3 hours, followed by treatment±Doxo (1 μM) for another 24 hours. Cells were assayed for apoptosis by TUNEL staining and nuclei were counterstained with DAPI.
# [2] = tested on: mice subject to TAC; assay: TAC model with pre-established pathology, JQ1 begun day 18 post-TAC; format: in vivo, mouse
# Source text: Adult mice were subjected to pressure overload using transverse aortic constriction (TAC). JQ1 or vehicle was begun on day 18 post-TAC, a time point when significant pathology has already developed (FIG. 11). […] (N=6-12 per group). […] For example, patients typically present with pre-existing or established cardiac hypertrophy and/or heart failure.
# [3] = tested on: NRVM; assay: PE-mediated pathologic gene induction in NRVM (qRT-PCR, gene expression profiling); format: cell-based, rat
# Description: (§1) NRVM were isolated from the hearts of 2 day old Sprague-Dawley rat pups (Charles River) and maintained under standard conditions as described (Haldar et al., 2010). The cells were differentially plated for 1.5 h in cell culture dishes to remove contaminating non-myocytes. Unless otherwise stated, NRVM were plated at a density of 10^5 cells/mL. Cells were initially plated in growth medium (DMEM supplemented with 5% FBS, 100 U/mL penicillin-streptomycin, and 2 mM L-glutamine) for 24-36 hours and maintained in serum-free media thereafter (DMEM supplemented with 0.1% BSA, 1% insulin-transferrin-selenium liquid media supplement (Sigma 13146), 100 U/mL penicillin-streptomycin, and 2 mM L-glutamine). Media was changed every 2-3 days. Prior to stimulation with agonists, NRVM were maintained in serum-free medium for 48-72 hours. For hypertrophic stimulation, NRVM were incubated with JQ1 versus DMSO at indicated concentrations for 6 h followed by stimulation with PE (100 μM) for indicated timepoints.
# For tissue RNA, a 10-20 mg piece of mouse heart tissue was preserved in RNA Later stabilization reagent (Qiagen) followed by mechanical disruption/homogenization in PureZOL (BioRad) on a TissueLyser (Qiagen) using stainless steel beads (Qiagen). The aqueous phase was extracted with chloroform. RNA was purified from the aqueous phase using the Aurum purification kit (BioRad #732-6830) following manufacturer's instructions. For cellular samples, total RNA from NRVM was isolated using the High Pure RNA isolation kit (Roche #11828665001) with on-column DNAase treatment according to manufacturer's directions. Purified RNA was reverse transcribed to complementary DNA using the iScript™ RT Supermix (Biorad #170-8841) following manufacturer's protocol. Quantitative real-time PCR was performed using TaqMan chemistry (Fast Start Universal Probe Master (Roche cat#4914058001) and labeled probes from the Roche Universal Probe Library System) on a Roche LightCycler. Relative expression was calculated using the AACt-method with normalization to constitutive genes as indicated.
# To determine the transcriptional effects of BET bromodomain inhibition during hypertrophic transformation, gene expression profiling (GEP) studies were performed in cultured NRVM at baseline and after PE stimulation (1.5, 6, 48 h) in the presence or absence of JQ1. These three timepoints were assessed to capture induction of early response genes such as c-Myc (Starksen et al., 1986) and the final hypertrophic gene program. […] A heat map of genes selected based on the highest magnitude of PE-mediated changes illustrates each of these clusters (FIG. 3A). […]
# [4] = target: T1, BRD4 (Rattus norvegicus, UniProt A0A8I6A216); assay: ChIP-qPCR of BRD4 and Pol II at the IL6 proximal promoter in NRVM; format: cell-based; settings: JQ1 500 nM, PE 100 μM, 90 min
# T1 construct: endogenous in cells; host or cells: NRVM (primary neonatal rat ventricular cardiomyocytes)
# Description: NRVM were plated in 15 cm dishes at 5×10^6 cells/dish. Chromatin pooled from approximately 15×10^6 NRVM were used for each immunoprecipitation. After indicated treatments, NRVM were fixed directly on the dish with 1% formaldehyde for 10 minutes followed by quenching with 0.125M glycine for 5 minutes. Chromatin was extracted, followed by shearing on a BioRuptor (Diagenode; total 16 cycles, hi-power, 30 sec on/off). The sonicated chromatin was immunoprecipitated with 5 μg of antibody bound to Dynabeads (Invitrogen) followed by extensive washing and elution. Immunoprecipitate and input chromatin samples were then reverse cross-linked followed by purification of genomic DNA. Target and non-target regions of genomic DNA were amplified by qRT-PCR in both the immunoprecipitates and input samples using Sybrgreen chemistry. Enrichment data were analyzed by calculating the immunoprecipitated DNA percentage of input DNA for each sample as previously described (Ott et al., 2012). Antibodies used in ChIP were BRD4 (Bethyl #A301-985A) and RNA Polymerase II (Santa Cruz N-20, sc-899).
# [5] = tested on: NRVM; assay: PE-mediated cardiomyocyte hypertrophy in NRVM (cell area measurement); format: cell-based, rat; settings: nanomolar doses of JQ1 (250 nM), PE 100 μM, 48 hours
# Description: as §1
# NRVM were plated on glass coverslips in 6-well dishes at a density of 10^5 cells/mL. After treatments, cells were briefly fixed in PBS containing 2% PFA, permeabilized with PBST/0.1% Triton X-100, and blocked in PBST/5% horse serum. Primary antibody was anti-sarcomeric α-actinin (Sigma A7811) at 1:800. Fluorophore-tagged anti-mouse secondary antibody (α-mouse Alexa 488 green) was used at 1:1000 dilution. Coverslips were mounted on glass slides with mounting media containing DAPI. Quantitation of cardiomyocyte cell surface area was performed on α-actinin-stained cardiomyocytes using fluorescent microscopy and NIH Image J software as previously described (Liang et al., 2001). Analysis consisted of at least 100 cardiomyocytes in 20-30 fields at 400× magnification. This process was replicated in a least three independent experiments, and the data were combined.
smiles,measurement,setting,value
Cc1sc2c(c1C)C(c1ccc(Cl)cc1)=N[C@@H](CC(=O)OC(C)(C)C)c1nnc(C)n1-2 [JQ1],"Doxo induced cardiotoxicity (apoptosis, TUNEL positive nuclei)",[1],blocks
same,progression of LV cavity dilation,[2],significantly attenuates
same,progression of LV systolic dysfunction,[2],significantly attenuates
same,progression of LV wall thickening,[2],significantly attenuates
same,progression of cardiomegaly,[2],significantly attenuates
same,"PE-mediated gene induction, global gene expression profiling","[3]; 500 nM JQ1, 100 μM PE, 1.5, 6, 48 h",attenuate or completely abrogate
same,PE-mediated c-myc induction (qRT-PCR),"[3]; JQ1 500 nM, PE 100 μM",does not suppress
same,PE-mediated induction of IL6 (qRT-PCR),"[3]; JQ1 500 nM, PE 100 μM",significantly attenuated
same,"PE mediated pathologic gene induction (hypertrophic marker genes, qRT-PCR)","[3]; JQ1 500 nM, PE 100 μM, 48 h",significantly blocked
same,recruitment of endogenous BRD4 and Pol II to the proximal promoter of IL6 in response to PE,[4],blocked this recruitment
same,phenylephrine (PE) mediated cellular hypertrophy (cardiomyocyte area),[5],significantly blocked
